These results are taken from patent publication US12528761B2, “Thyromimetics” (Autobahn Therapeutics, Inc., priority 2020, dated 2026).

The target of one assay is T1, TRα (Homo sapiens, UniProt P10827).
T1 construct: expressed in transfected cells; host or cells: HEK293
T1 sequence (P10827 1-410 isoform P10827-2): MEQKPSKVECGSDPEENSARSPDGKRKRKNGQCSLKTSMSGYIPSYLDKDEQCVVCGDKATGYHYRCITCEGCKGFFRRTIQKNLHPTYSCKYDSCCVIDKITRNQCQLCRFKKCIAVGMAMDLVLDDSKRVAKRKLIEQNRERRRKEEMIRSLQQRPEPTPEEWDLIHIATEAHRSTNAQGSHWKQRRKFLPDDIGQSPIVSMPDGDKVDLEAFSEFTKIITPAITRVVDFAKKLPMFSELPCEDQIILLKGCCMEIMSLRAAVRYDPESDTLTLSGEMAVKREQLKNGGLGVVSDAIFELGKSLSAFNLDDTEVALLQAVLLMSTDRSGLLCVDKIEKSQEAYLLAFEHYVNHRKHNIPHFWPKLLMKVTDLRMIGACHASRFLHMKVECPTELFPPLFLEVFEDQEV
Put plainly: TR reporter-gene assay (Gal4 DBD hybrid, luciferase), TRα. Format: cell-based. The protocol: (§1) Compounds were tested for thyroid-hormone receptor activity using TR reporter-gene assays. Reporter cells used in the assays express a TR-receptor hybrid (either TRα or TRβ) in which the native N-terminal DNA binding domain (DBD) has been replaced with that of the yeast Gal4 DBD. The reporter gene, firefly luciferase, is functionally linked to the Gal4 upstream activation sequence (UAS). Both cell lines were derived from human embryonic kidney (HEK293).
(§2) Step 1: A suspension of reporter cells was prepared in cell recovery medium containing 10% charcoal-stripped FBS, and dispensed into assay plates. The plates were pre-incubated for 6 hours in a cell culture incubator (37° C./5% CO2/85% humidity).
(§3) These intermediate stocks were subsequently diluted directly into compound screening medium containing 10% charcoal-stripped FBS to generate “2×-concentration” treatment media (containing 0.2, 0.4 or 0.8% DMSO).
(§4) Step 3: At the end of the pre-incubation period, culture media were discarded from the assay plates, and all wells received 100 μl of compound screening medium. 100 μl of each of the previously prepared “2×-concentration” treatment media were dispensed into duplicate assay wells, thereby achieving the desired final treatment concentrations. The final concentration of DMSO in all assay wells was 0.1, 0.2 or 0.4%. Assay plates were incubated for 24 hr in a cell culture incubator (37° C./5% CO2/85% humidity).
(§5) Step 4: At the 24 h assay endpoint, treatment media were discarded and 100 µl/well of luciferase detection reagent was added. Relative luminometer units (RLUs) were quantified from each assay well.

For another assay, the target named is T2, TRβ (Homo sapiens, UniProt P10828).
T2 construct: expressed in transfected cells; host or cells: HEK293
T2 sequence (P10828 217-461 limits assumed): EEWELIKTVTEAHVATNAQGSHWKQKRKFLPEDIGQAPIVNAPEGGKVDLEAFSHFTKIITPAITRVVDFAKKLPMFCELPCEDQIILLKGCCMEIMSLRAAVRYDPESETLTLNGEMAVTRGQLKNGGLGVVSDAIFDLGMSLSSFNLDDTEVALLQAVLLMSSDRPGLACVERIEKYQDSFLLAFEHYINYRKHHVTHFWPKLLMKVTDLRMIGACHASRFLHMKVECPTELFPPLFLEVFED
Put plainly: TR reporter-gene assay (Gal4 DBD hybrid, luciferase), TRβ. Particulars: for T3-SI (selectivity index, EC50 (TRα)/EC50 (TRβ)): class symbols. Format: cell-based. The protocol: as §1, §2, §3, §4, §5

Setting [1] is: HEK293-derived reporter cells, 24 hr treatment, read-out: TRα EC50.
The mark [2] stands for this setting: HEK293-derived reporter cells, 24 hr treatment, read-out: TRβ EC50.

pEC50: −log10 of the molar value. Where two headings read alike, the source gives them in different places.

For orientation: pEC50 means −log10 of the EC50, conventionally taken in molar units.

In the case of `Cc1cc(NCC(=O)O)cc(Cl)c1Cc1ccc(O)c(C(C)C)c1` [Compound 125, (3-chloro-4-(4-hydroxy-3-isopropylbenzyl)-5-methylphenyl)glycine], the pEC50 at TRα (setting [1]) and at TRβ (setting [2]) was 7.00 to 8.00 each time. Besides, on TRβ, the “T3-SI (selectivity index, EC50 (TRα)/EC50 (TRβ))” value was “++ (3× < T3-SI ≤ 30×)”.

In the case of `CC(C)c1cc(Cc2c(Cl)cc(N(C)CC(=O)O)cc2Cl)ccc1O` [Compound 148, N-(3,5-dichloro-4-(4-hydroxy-3-isopropylbenzyl)phenyl)-N-methylglycine], the pEC50 on TRα (setting [1]) and at TRβ (setting [2]) was less than 6.00 in each case. Besides, the “T3-SI (selectivity index, EC50 (TRα)/EC50 (TRβ))” value on TRβ was “+ (T3-SI ≤ 3×)”.

`CC(C)c1c(O)ccc(Cc2c(Cl)cc(CC(=O)O)cc2Cl)c1F` [Compound 32, 2-(3,5-dichloro-4-(2-fluoro-4-hydroxy-3-isopropylbenzyl)phenyl)acetic acid]: the pEC50 at TRα was 7.00 to 8.00; at TRβ, more than 8.00. For the same molecule, the “T3-SI (selectivity index, EC50 (TRα)/EC50 (TRβ))” value at TRβ is “++ (3× < T3-SI ≤ 30×)”.

`CC(C)c1c(O)ccc(Cc2c(Cl)cc(NCC(=O)O)cc2Cl)c1F` [Compound 46, (3,5-dichloro-4-(2-fluoro-4-hydroxy-3-isopropylbenzyl)phenyl)glycine]: the pEC50 on TRα (setting [1]) is 7.00 to 8.00; at TRβ (setting [2]), more than 8.00. Also, the “T3-SI (selectivity index, EC50 (TRα)/EC50 (TRβ))” value at TRβ was “++ (3× < T3-SI ≤ 30×)”.

Regarding `CC(C)c1cc(Cc2c(Cl)cc(CC(=O)O)cc2Cl)ccc1O` [Compound 6, 2-(3,5-dichloro-4-(4-hydroxy-3-isopropylbenzyl)phenyl)acetic acid], the pEC50 at TRα (setting [1]) and on TRβ (setting [2]) was 6.00 to 7.00 in each case. In addition, the “T3-SI (selectivity index, EC50 (TRα)/EC50 (TRβ))” value on TRβ was “++ (3× < T3-SI ≤ 30×)”.

With `CC(c1ccc(F)cc1)c1c(O)ccc(Cc2c(Cl)cc(CC(=O)O)cc2Cl)c1F` (stereo not drawn) [Compound 37, 2-(3,5-dichloro-4-(2-fluoro-3-(1-(4-fluorophenyl)ethyl)-4-hydroxybenzyl)phenyl)acetic acid], the pEC50 at TRα (setting [1]) is 7.00 to 8.00; at TRβ (setting [2]), more than 8.00. Besides, the “T3-SI (selectivity index, EC50 (TRα)/EC50 (TRβ))” value at TRβ was “++ (3× < T3-SI ≤ 30×)”.

Turning to `CC(C)c1cc(Cc2c(Cl)cc(NC(=O)CC(=O)O)cc2Cl)ccc1O` [Compound 22, 3-((3,5-dichloro-4-(4-hydroxy-3-isopropylbenzyl)phenyl)amino)-3-oxopropanoic acid], the pEC50 on TRα (setting [1]) and on TRβ (setting [2]) was 6.00 to 7.00 throughout. Further, on TRβ, the “T3-SI (selectivity index, EC50 (TRα)/EC50 (TRβ))” value is “++ (3× < T3-SI ≤ 30×)”.

In the case of `CC(C)c1c(O)ccc(Cc2c(Cl)cc(CCC(=O)O)cc2Cl)c1F` [Compound 40, 3-(3,5-dichloro-4-(2-fluoro-4-hydroxy-3-isopropylbenzyl)phenyl)propanoic acid], the pEC50 on TRα (setting [1]) and on TRβ (setting [2]) was more than 8.00 throughout. Moreover, the “T3-SI (selectivity index, EC50 (TRα)/EC50 (TRβ))” value at TRβ is “++ (3× < T3-SI ≤ 30×)”.

As for `Cc1cc(C[S+]([O-])CC(=O)O)cc(Cl)c1Cc1ccc(O)c(C(C)C)c1` (stereo not drawn) [Compound 246, 2-((3-chloro-4-(4-hydroxy-3-isopropylbenzyl)-5-methylbenzyl)sulfinyl)acetic acid], the pEC50 at TRα (setting [1]) and on TRβ (setting [2]) was less than 6.00 in each case. Also, at TRβ, the “T3-SI (selectivity index, EC50 (TRα)/EC50 (TRβ))” value was “++ (3× < T3-SI ≤ 30×)”.

As to `Cc1cc(CSCC(=O)O)c(F)c(Cl)c1Cc1ccc(O)c(C(C)C)c1` [Compound 224, 2-((3-chloro-2-fluoro-4-(4-hydroxy-3-isopropylbenzyl)-5-methylbenzyl)thio)acetic acid], the pEC50 at TRα (setting [1]) and at TRβ (setting [2]) was 6.00 to 7.00 in each case. In addition, the “T3-SI (selectivity index, EC50 (TRα)/EC50 (TRβ))” value on TRβ is “++ (3× < T3-SI ≤ 30×)”.

As for `CC(C)c1cc(Cc2c(Cl)cc(COCC(=O)O)cc2Cl)ccc1O` [Compound 28, 2-((3,5-dichloro-4-(4-hydroxy-3-isopropylbenzyl)benzyl)oxy)acetic acid], the pEC50 at TRα (setting [1]) and at TRβ (setting [2]) was 7.00 to 8.00 in each case. Further, on TRβ, the “T3-SI (selectivity index, EC50 (TRα)/EC50 (TRβ))” value is “++ (3× < T3-SI ≤ 30×)”.

As for `CONC(=O)CCc1cc(Cl)c(Cc2ccc(O)c(C(C)C)c2F)c(Cl)c1` [Compound 106, 3-(3,5-dichloro-4-(2-fluoro-4-hydroxy-3-isopropylbenzyl)phenyl)-N-methoxypropanamide], the pEC50 on TRα (setting [1]) and on TRβ (setting [2]) was 7.00 to 8.00 throughout. Further, the “T3-SI (selectivity index, EC50 (TRα)/EC50 (TRβ))” value at TRβ is “++ (3× < T3-SI ≤ 30×)”.

In the case of `Cc1c(F)c(NCC(=O)O)cc(Cl)c1Cc1ccc(O)c(C(C)C)c1` [Compound 223, (5-chloro-2-fluoro-4-(4-hydroxy-3-isopropylbenzyl)-3-methylphenyl)glycine], the pEC50 on TRα (setting [1]) and on TRβ (setting [2]) was 7.00 to 8.00 throughout. Further, the “T3-SI (selectivity index, EC50 (TRα)/EC50 (TRβ))” value on TRβ is “++ (3× < T3-SI ≤ 30×)”.

Regarding `CC(C)c1cc(Cc2c(Cl)cc(/C=C/C(=O)O)cc2Cl)ccc1O` [Compound 86, (E)-3-(3,5-dichloro-4-(4-hydroxy-3-isopropylbenzyl)phenyl)acrylic acid], the pEC50 on TRα (setting [1]) and at TRβ (setting [2]) was 7.00 to 8.00 each time. At TRβ, the “T3-SI (selectivity index, EC50 (TRα)/EC50 (TRβ))” value was “+ (T3-SI ≤ 3×)”.

Consider `CNC(=O)C(F)(F)Oc1cc(Cl)c(Cc2ccc(O)c(C(C)C)c2)c(Cl)c1` [Compound 84, 2-(3,5-dichloro-4-(4-hydroxy-3-isopropylbenzyl)phenoxy)-2,2-difluoro-N-methylacetamide], for which the pEC50 on TRα (setting [1]) and at TRβ (setting [2]) was 6.00 to 7.00 throughout. For the same molecule, the “T3-SI (selectivity index, EC50 (TRα)/EC50 (TRβ))” value on TRβ is “+ (T3-SI ≤ 3×)”.

On to `CC(C)c1c(O)ccc(Cc2c(Cl)cc(CCC(=O)O)c(F)c2Cl)c1F` [Compound 71, 3-(3,5-dichloro-2-fluoro-4-(2-fluoro-4-hydroxy-3-isopropylbenzyl)phenyl)propanoic acid], for which the pEC50 on TRα (setting [1]) and on TRβ (setting [2]) was 7.00 to 8.00 each time. For the same molecule, the “T3-SI (selectivity index, EC50 (TRα)/EC50 (TRβ))” value on TRβ was “++ (3× < T3-SI ≤ 30×)”.

In the case of `CC(C)c1cc(Cc2c(Cl)cc(/C=C\C(=O)O)cc2Cl)ccc1O` [Compound 100, (Z)-3-(3,5-dichloro-4-(4-hydroxy-3-isopropylbenzyl)phenyl)acrylic acid], the negative logarithm of the EC50 (pEC50) on TRα (setting [1]) was 6.00 to 7.00; at TRβ (setting [2]), less than 6.00. The “T3-SI (selectivity index, EC50 (TRα)/EC50 (TRβ))” value on TRβ was “+ (T3-SI ≤ 3×)”.

For `CC(C)c1c(O)ccc(Cc2c(Cl)cc(C(C)C(=O)O)cc2Cl)c1F` (stereo not drawn) [Compound 60, 2-(3,5-dichloro-4-(2-fluoro-4-hydroxy-3-isopropylbenzyl)phenyl)propanoic acid], the pEC50 on TRα (setting [1]) and at TRβ (setting [2]) was 6.00 to 7.00 in each case. The “T3-SI (selectivity index, EC50 (TRα)/EC50 (TRβ))” value on TRβ is “++ (3× < T3-SI ≤ 30×)”.

With `CC(C)c1cc(Cc2c(Cl)cc(OCCCCC(=O)O)cc2Cl)ccc1O` [Compound 26, 5-(3,5-dichloro-4-(4-hydroxy-3-isopropylbenzyl)phenoxy)pentanoic acid], the pEC50 at TRα (setting [1]) and on TRβ (setting [2]) was 6.00 to 7.00 each time. The “T3-SI (selectivity index, EC50 (TRα)/EC50 (TRβ))” value at TRβ is “+ (T3-SI ≤ 3×)”.

As to `Cc1cc(NCC(=O)O)cc(Cl)c1Cc1ccc(O)c(C(C)C)c1F` [Compound 247, (3-chloro-4-(2-fluoro-4-hydroxy-3-isopropylbenzyl)-5-methylphenyl)glycine], the pEC50 on TRα (setting [1]) and at TRβ (setting [2]) was 7.00 to 8.00 throughout. The “T3-SI (selectivity index, EC50 (TRα)/EC50 (TRβ))” value at TRβ is “++ (3× < T3-SI ≤ 30×)”.

With `O=C(O)CCc1cc(Cl)c(Cc2ccc(O)c(-c3cc(OC(F)F)ccc3F)c2F)c(Cl)c1` [Compound 44, 3-(3,5-dichloro-4-((5′-(difluoromethoxy)-2,2′-difluoro-6-hydroxy-[1,1′-biphenyl]-3-yl)methyl)phenyl)propanoic acid], the pEC50 on TRα (setting [1]) is 7.00 to 8.00; at TRβ (setting [2]), more than 8.00. In addition, the “T3-SI (selectivity index, EC50 (TRα)/EC50 (TRβ))” value on TRβ was “++ (3× < T3-SI ≤ 30×)”.

With `CC(C)c1cc(Cc2c(Cl)cc(OC(F)C(=O)O)cc2Cl)ccc1O` (stereo not drawn) [Compound 81, 2-(3,5-dichloro-4-(4-hydroxy-3-isopropylbenzyl)phenoxy)-2-fluoroacetic acid], the pEC50 at TRα (setting [1]) and on TRβ (setting [2]) was 6.00 to 7.00 in each case. Besides, the “T3-SI (selectivity index, EC50 (TRα)/EC50 (TRβ))” value at TRβ was “++ (3× < T3-SI ≤ 30×)”.
